From ChEMBL document CHEMBL1201862, “PubChem BioAssay data set” (2004)
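These data come from cells grown in 96-well plates and exposed to compound for 48 hours at five concentrations. At the GI50, growth is halved.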 Activity calls are given as the source filed them. No stated cut-off is given here; in the data, active = GI50 up to about 1.1 µM and inactive = higher.

Key:
Assay in all cases: NCI anticancer screen, dose series, 48 h
786-0 = test system: 786-0
A549 = test system: A549
ACHN = test system: ACHN
BT-549 = test system: BT-549
CAKI-1 = test system: CAKI-1
CCRF-CEM = test system: CCRF-CEM
COLO 205 = test system: COLO 205
DU-145 = test system: DU-145
EKVX = test system: EKVX
HCC 2998 = test system: HCC 2998
HCT-116 = test system: HCT-116
HCT-15 = test system: HCT-15
HL-60 = test system: HL-60
HOP-62 = test system: HOP-62
HT-29 = test system: HT-29
Hs-578T = test system: Hs-578T
IGROV-1 = test system: IGROV-1
K562 = test system: K562
KM12 = test system: KM12
M14 = test system: M14
MCF7 = test system: MCF7
MDA-MB-231 = test system: MDA-MB-231
MDA-MB-435 = test system: MDA-MB-435
MDA-N = test system: MDA-N
MOLT-4 = test system: MOLT-4
NCI-H226 = test system: NCI-H226
NCI-H23 = test system: NCI-H23
NCI-H460 = test system: NCI-H460
NCI-H522 = test system: NCI-H522
NCI/ADR-RES = test system: NCI/ADR-RES
OVCAR-3 = test system: OVCAR-3
OVCAR-4 = test system: OVCAR-4
OVCAR-8 = test system: OVCAR-8
PC-3 = test system: PC-3
RPMI-8226 = test system: RPMI-8226
RXF 393 = test system: RXF 393
SF-268 = test system: SF-268
SF-295 = test system: SF-295
SF-539 = test system: SF-539
SK-MEL-28 = test system: SK-MEL-28
SK-MEL-5 = test system: SK-MEL-5
SK-OV-3 = test system: SK-OV-3
SN12C = test system: SN12C
SNB-19 = test system: SNB-19
SNB-75 = test system: SNB-75
SR = test system: SR
SW-620 = test system: SW-620
T47D = test system: T47D
TK-10 = test system: TK-10
U-251 = test system: U-251
UACC-257 = test system: UACC-257
UACC-62 = test system: UACC-62
UO-31 = test system: UO-31
HOP-92 = test system: HOP-92
LOX IMVI = test system: LOX IMVI
Malme-3M = test system: Malme-3M
OVCAR-5 = test system: OVCAR-5
SK-MEL-2 = test system: SK-MEL-2

SMILES: COC(=O)[C@]1(C)CCC[C@@]2(C)C1CC[C@@]13C=C(C(C)C)[C@@H](CC1=O)CC23 (stereo not given in full)
- GI50 (786-0): 25.9 µM (inactive)
- GI50 (A549): 29.2 µM (inactive)
- GI50 (ACHN): 18.6 µM (inactive)
- GI50 (BT-549): 23 µM (inactive)
- GI50 (CAKI-1): 34.2 µM (inactive)
- GI50 (CCRF-CEM): 17.7 µM (inactive)
- GI50 (COLO 205): > 10 µM (inactive)
- GI50 (DU-145): 38.4 µM (inactive)
- GI50 (EKVX): 27.4 µM (inactive)
- GI50 (HCC 2998): 38.3 µM (inactive)
- GI50 (HCT-116): 20.4 µM (inactive)
- GI50 (HCT-15): 21.1 µM
- GI50 (HL-60): 19.8 µM (inactive)
- GI50 (HOP-62): 30.6 µM (inactive)
- GI50 (HT-29): 18.2 µM (inactive)
- GI50 (Hs-578T): 13.4 µM (inactive)
- GI50 (IGROV-1): 35.2 µM (inactive)
- GI50 (K562): 13.8 µM (inactive)
- GI50 (KM12): 34.5 µM (inactive)
- GI50 (M14): 38.5 µM (inactive)
- GI50 (MCF7): 26.1 µM (inactive)
- GI50 (MDA-MB-231): 30.3 µM (inactive)
- GI50 (MDA-MB-435): 35.6 µM (inactive)
- GI50 (MDA-N): 28.8 µM (inactive)
- GI50 (MOLT-4): 15 µM (inactive)
- GI50 (NCI-H226): 21.1 µM (inactive)
- GI50 (NCI-H23): 34 µM (inactive)
- GI50 (NCI-H460): 35.4 µM (inactive)
- GI50 (NCI-H522): 18.6 µM (inactive)
- GI50 (NCI/ADR-RES): 23 µM (inactive)
- GI50 (OVCAR-3): 21.4 µM (inactive)
- GI50 (OVCAR-4): 35.2 µM (inactive)
- GI50 (OVCAR-8): 29 µM (inactive)
- GI50 (PC-3): 21.6 µM (inactive)
- GI50 (RPMI-8226): 18.5 µM (inactive)
- GI50 (RXF 393): 21.5 µM (inactive)
- GI50 (SF-268): 32.5 µM (inactive)
- GI50 (SF-295): 30.6 µM (inactive)
- GI50 (SF-539): 20.9 µM (inactive)
- GI50 (SK-MEL-28): 41.3 µM (inactive)
- GI50 (SK-MEL-5): 16.5 µM (inactive)
- GI50 (SK-OV-3): 46.3 µM (inactive)
- GI50 (SN12C): 19.8 µM (inactive)
- GI50 (SNB-19): 25.8 µM (inactive)
- GI50 (SNB-75): 59.7 µM (inactive)
- GI50 (SR): 15.5 µM (inactive)
- GI50 (SW-620): 27.3 µM (inactive)
- GI50 (T47D): 32.4 µM (inactive)
- GI50 (TK-10): 43.8 µM (inactive)
- GI50 (U-251): 18.7 µM (inactive)
- GI50 (UACC-257): 21.5 µM (inactive)
- GI50 (UACC-62): 28.6 µM (inactive)
- GI50 (UO-31): 21.7 µM (inactive)

SMILES: CC(=O)OCc1ccc2oc(=O)c(C(=O)Oc3cccc(Cl)c3)cc2c1
- GI50 (786-0): 36.1 µM (inactive)
- GI50 (A549): > 100 µM (inactive)
- GI50 (ACHN): 38.2 µM (inactive)
- GI50 (BT-549): > 100 µM (inactive)
- GI50 (CAKI-1): 42.9 µM (inactive)
- GI50 (CCRF-CEM): > 100 µM (inactive)
- GI50 (COLO 205): 30.3 µM (inactive)
- GI50 (DU-145): > 100 µM (inactive)
- GI50 (EKVX): > 100 µM (inactive)
- GI50 (HCC 2998): 19.4 µM (inactive)
- GI50 (HCT-116): 21.2 µM (inactive)
- GI50 (HCT-15): 35.5 µM
- GI50 (HOP-62): 99.1 µM (inactive)
- GI50 (HOP-92): 20.6 µM (inactive)
- GI50 (HT-29): 27.5 µM (inactive)
- GI50 (Hs-578T): > 100 µM (inactive)
- GI50 (IGROV-1): 63.5 µM (inactive)
- GI50 (K562): 23.9 µM (inactive)
- GI50 (KM12): 61.5 µM (inactive)
- GI50 (LOX IMVI): > 100 µM (inactive)
- GI50 (M14): 34.6 µM (inactive)
- GI50 (MCF7): 26.2 µM (inactive)
- GI50 (MDA-MB-231): 32.4 µM (inactive)
- GI50 (MDA-MB-435): 64.4 µM (inactive)
- GI50 (MDA-N): > 100 µM (inactive)
- GI50 (MOLT-4): 90.2 µM (inactive)
- GI50 (Malme-3M): > 100 µM (inactive)
- GI50 (NCI-H226): > 100 µM (inactive)
- GI50 (NCI-H23): 74.6 µM (inactive)
- GI50 (NCI-H460): 37.9 µM (inactive)
- GI50 (NCI-H522): > 100 µM (inactive)
- GI50 (NCI/ADR-RES): > 100 µM (inactive)
- GI50 (OVCAR-3): > 100 µM (inactive)
- GI50 (OVCAR-4): > 100 µM (inactive)
- GI50 (OVCAR-5): > 100 µM (inactive)
- GI50 (OVCAR-8): > 100 µM (inactive)
- GI50 (PC-3): 19.1 µM (inactive)
- GI50 (RPMI-8226): > 100 µM (inactive)
- GI50 (RXF 393): 33.7 µM (inactive)
- GI50 (SF-268): > 100 µM (inactive)
- GI50 (SF-295): > 100 µM (inactive)
- GI50 (SF-539): 46.2 µM (inactive)
- GI50 (SK-MEL-28): 83 µM (inactive)
- GI50 (SK-MEL-2): 82.4 µM (inactive)
- GI50 (SK-MEL-5): > 100 µM (inactive)
- GI50 (SK-OV-3): > 100 µM (inactive)
- GI50 (SN12C): 54.5 µM (inactive)
- GI50 (SNB-19): 83 µM (inactive)
- GI50 (SNB-75): 37.8 µM (inactive)
- GI50 (SR): 44.8 µM (inactive)
- GI50 (SW-620): 56.4 µM (inactive)
- GI50 (T47D): 20.6 µM (inactive)
- GI50 (TK-10): 31.5 µM (inactive)
- GI50 (U-251): > 100 µM (inactive)
- GI50 (UACC-257): 62.7 µM (inactive)
- GI50 (UACC-62): 17.4 µM (inactive)
- GI50 (UO-31): 22.1 µM (inactive)
